This is an account of results in patent US20190289849A1, “Novel Plant Growth Regulators and Methods of Using Same” (Duke University, priority 2016, published 2019).

Molecules are shown by their SMILES.

Holding throughout (format): in vivo
In assay [1] the test system is Heinz tomatoes. As to the kind of experiment: Tomato primary and lateral root growth. To be noted: tomato. Here is the method:
Heinz tomatoes were used for all tomato experiments. Seeds were sterilized using 40% liquid bleach for 30 min, then plated on 1% MS media in 120×120×17 mm square petri dishes. Seeds were kept in the dark at room temperature for 3 days, and then exposed to 100-130 μmol/(m^2s^1) illumination and grown vertically under long-day conditions at 22° C. For treating tomatoes, β-cyclocitral, norflurazone, and D15 were added directly to the media, at the concentrations described in the figures. Norflurazone was diluted to a final concentration of 1 μM in media. Tomato phenotypes were analyzed at 6 das. To measure lateral root capacity, the primary root apical meristem of each seedling was sterilely excised at 7 days. The plants were given 3 days to grow out lateral roots, and then each emerged lateral root was counted using a dissection microscope, as described previously (Van Norman et al., Proceedings of the National Academy of Sciences of the United States of America, 2014. 111(13): p. […]-[…]). Luciferase activity was measured as previously described, using exposure times of 7 min (Moreno-Risueno, M. A., et al., Science, 2010. 329(5997): p. 1306-1311). WOX5^+ and EN7^+ primordia were counted using a stereo zoom microscope (Zeiss). Lateral and primary root lengths for Arabidopsis thaliana and tomato were measured using ImageJ (National Institutes of Health) software. 3D images of rice root architecture were captured using a 360° revolving platform and these images were analyzed using GiA Roots (www.giaroots.org), as described previously by Topp (2013). Primary root lengths were determined by dissecting the root and measuring the length with a ruler. Shoot mass was measured after removing the shoots and drying them for 10 days at 60° C.

The test system of assay [2] is Arabidopsis thaliana. As to the kind of experiment: Primary and lateral root growth on exposure to volatile β-cyclocitral.
Assay [3] concerns Arabidopsis thaliana. As to the kind of experiment: Lateral root capacity (emerged lateral roots after removal of the primary root apical meristem).
Assay [4] deals with Azucena (tropical japonica) rice. As to the kind of experiment: Rice root system architecture and shoot weight. Here is the method: Azucena (tropical japonica) seeds were dehulled and germinated in the dark for 3 days at 30° C. Germinated seeds were transferred to Yoshida's nutrient solution, solidified with 0.25% gelzan (Caisson Laboratories, Inc.), in 2 L glass cylinders, as described previously (Topp, C. N., et al., Proceedings of the National Academy of Sciences of the United States of America, 2013. 110(18): p. […]-[…].). Rice roots were imaged at 12 das. To measure lateral root capacity, the primary root apical meristem of each seedling was sterilely excised at 7 days. The plants were given 3 days to grow out lateral roots, and then each emerged lateral root was counted using a dissection microscope, as described previously (Van Norman et al., Proceedings of the National Academy of Sciences of the United States of America, 2014. 111(13): p. […]-[…]). Luciferase activity was measured as previously described, using exposure times of 7 min (Moreno-Risueno, M. A., et al., Science, 2010. 329(5997): p. 1306-1311). WOX5^+ and EN7^+ primordia were counted using a stereo zoom microscope (Zeiss). Lateral and primary root lengths for Arabidopsis thaliana and tomato were measured using ImageJ (National Institutes of Health) software. 3D images of rice root architecture were captured using a 360° revolving platform and these images were analyzed using GiA Roots (www.giaroots.org), as described previously by Topp (2013). Primary root lengths were determined by dissecting the root and measuring the length with a ruler. Shoot mass was measured after removing the shoots and drying them for 10 days at 60° C.

As for `CC1=C(C=O)C(C)(C)CCC1` [β-cyclocitral], the “rescue of D15 primary root inhibition” value in assay [1] (D15 plus exogenous β-cyclocitral) is recorded as “could not be rescued”. Moreover, the lateral root length result in assay [1] (dose-dependent) is listed as “significant increase”. In addition, in assay [1] (norflurazone plus β-cyclocitral), the “rescue of primary root growth in norflurazone-treated plants” value is “fully rescued”. In addition, the primary root length entry in assay [1] (uninhibited plants) is recorded as “significantly increased”. The “primary and lateral root emergence” value in assay [2] (exogenous volatile application, in the presence and absence of D15) was “increased”. Moreover, the lateral root length entry in assay [2] (with or without co-treatment of D15) is listed as “increases”. The “lateral root capacity / branching in combination with D15 (screen)” value in assay [3] (30 μM D15 plus apocarotenoid, normalized to D15 treatment) is reported as “increase lateral root branching”. The “rescue of D15 inhibition of lateral root branching” value in assay [3] (D15-treated plants, apocarotenoid concentration varied for maximum rescue) was “fully rescue”. In assay [4] (Azucena rice), the crown root growth result is “dramatically increasing” and the primary root growth entry was “dramatically increasing”. Further, the “root system depth and compactness vs control plants” value in assay [4] (Azucena rice, 10 μM β-cyclocitral per FIG. 8) was “deeper and more compact”. Besides, in assay [4] (rice), the lateral root length entry is recorded as “decreased” and the shoot growth result is listed as “remained unchanged”. Besides, the dry shoot weight result in assay [4] (rice plants) is recorded as “does not significantly change”.
